# In article PMC9455983 (International Journal of Molecular Sciences, 2022):
# pKi: −log10 of the molar value. “Also recorded” adds a separate entry of the source. Read-outs that look alike come from different tables or passages of the source.
# Tests used:
# C57BL/6J mice [1] = test: Opioid receptor involvement in antinociception (antagonist pretreatment, tail-withdrawal assay); type: in vivo, mouse
# Protocol: Pretreatment of mice with the opioid antagonist naloxone (10 mg/kg, s.c., −15 min) was used to assess receptor contribution to the observed antinociception induced by maximal tested doses of each 1968-series compound tested.
# The opioid receptor involvement in the agonist activity of the heterocyclic peptidomimetics was determined by pretreating mice with a single dose of β-funaltrexamine (β-FNA, 10 mg/kg, i.p.) or nor-BNI (10 mg/kg, i.p.) 24 h in advance of administration of a dose of 1968-series compound.
# C57BL/6J mice [2] = test: Respiration rate in CLAMS/Oxymax system; type: in vivo, mouse; conditions: i.c.v.
# Protocol: (§1) Respiration rates (in breaths per minute) and animal locomotive activity (as ambulations) were assessed using the Oxymax/CLAMS system (Columbus Instruments, Columbus, OH), as described previously. Mice were habituated to their individual sealed housing chambers for 60 min before testing. Mice were administered 1968-22 (0.3–100 nmol, i.c.v.), morphine (100 nmol, i.c.v.), or vehicle, as indicated, and five min later confined to the CLAMS testing chambers. Pressure monitoring within the sealed chambers measured frequency of respiration. Infrared beams located in the floor measured locomotion as number of beam breaks. Respiration and locomotive data were averaged over 20 min periods for 120 min post-injection of the test compound. Data are presented as % vehicle response ± SEM, ambulation or breaths per minute.
# [3] = biological target: T1, kappa-opioid receptor (KOR) (Cavia porcellus, UniProt P41144); test: KOR radioligand competition binding assay ([3H]U69,593); parameters: species or system guinea pig; conditions: Kappa screening results
# T1 construct: Guinea pig cortices and cerebella were homogenized using 50 mM Tris, pH 7.4; from tissue; host or cells: guinea pig cortex and cerebellum membranes
# Summary of the method: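 Guinea pig cortex and cerebellum homogenates in 50 mM Tris pH 7.4 with 10 mM MgCl2, 2 nM [3H]U69,593, 2 h at 25 °C. Unlabeled U50,488 gave the standard curve and nonspecific binding. Filtration on BSA-soaked GF/B filters, scintillation counting; two replicates, repeated twice, mean ± SD.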
# C57BL/6J mice [4] = test: Opioid antagonist activity of 1968-22 against opioid agonists (tail-withdrawal assay)
# mu-opioid receptor (MOR) = biological target: T2, mu-opioid receptor (MOR) (Rattus norvegicus, UniProt P33535); test: MOR radioligand competition binding assay ([3H]-DAMGO); conditions: Mu screening results
# T2 construct: Rat cortices were homogenized using 50 mM Tris, pH 7.4, and centrifuged at 16,500 rpm for 10 min; from tissue; host or cells: rat cortex membranes
# Summary of the method: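 Rat cortical membranes in 50 mM Tris pH 7.4 with 2 mg/mL bovine serum were incubated with 2 nM [3H]-DAMGO and test compound. Bound radioligand was separated by filtration on BSA-soaked GF/B filters and counted by scintillation. Values are mean ± SD of two experiments, each in duplicate.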
# C57BL/6J mice [5] = test: Conditioned place preference / aversion; type: in vivo, mouse; conditions: 0.1, 1 or 10 nmol, i.c.v.; two days of place conditioning
# [6] = LC-MS/MS analysis of blood and perfused brain after i.v. administration; type: in vivo, mouse
# Protocol: To assess the stability of 1968-22 in plasma and evaluate CNS penetration, blood and perfused brains were collected from mice 5, 15, and 30 min after (i.v.) administration of the bis-cyclic guanidine (10 mg/kg, i.v.).
# Figure 5 LC-MS/MS analysis of 1968-22 ([…].) in blood and brain samples isolated from treated mice over 30 min. Control mice received vehicle (10% Ethanol/10%Tween-80/80% 0.9% saline) and were harvested immediately. Points are mean AUC ± SEM for the summed ion extracted chromatographs of 1968-22 from three mice/time points.
# [7] = biological target: T3, delta-opioid receptor (DOR) (Rattus norvegicus, UniProt P33533); test: DOR radioligand competition binding assay ([3H]-DPDPE); conditions: Delta screening results
# T3 construct: Rat cortices were homogenized using 50 mM Tris, pH 7.4, 10 mM MgCl2-6H2O, 200 µM PMSF; from tissue; host or cells: rat cortex membranes
# Summary of the method: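 Competition binding on rat cortical homogenate in 50 mM Tris pH 7.4, 10 mM MgCl2, 200 µM PMSF with 2 nM [3H]-DPDPE, 2.5 h at 25 °C. Unlabeled DPDPE defined nonspecific binding; filtration onto BSA-soaked GF/B filters, scintillation counting. Mean ± SD of two experiments in duplicate.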
# C57BL/6J mice [8] = test: Ambulation (locomotor activity) in CLAMS/Oxymax system; type: in vivo, mouse; conditions: i.c.v.
# Protocol: as §1
# C57BL/6J mice [9] = test: Acute antinociceptive tolerance determination; conditions: i.c.v.
# [10] = experiment 1, unit inferred, read-out: Ki (Exp 1)
# [11] = experiment 2, unit inferred, read-out: Ki (Exp 2)
# [12] = mean of two experiments, read-out: Ki
smiles,measurement,setting,value
Cc1cc(O)cc(C)c1C[C@H]1CN([C@@H](Cc2c(C)cc(O)cc2C)CN2C(=N)NC[C@@H]2C)C(=N)N1 [1968-22],effect of naloxone pretreatment on antinociception,"C57BL/6J mice [1]; naloxone 10 mg/kg, s.c., −15 min, maximal tested i.c.v. dose of compound",most susceptible to antagonism by naloxone; also recorded: blocked fully
same,effect of naltrindole (DOR antagonist) pretreatment on antinociception,"C57BL/6J mice [1]; naltrindole 20 mg/kg, i.p., −20 min, 1968-16 30 nmol or 1968-22 0.3 nmol, i.c.v.",significantly antagonized
same,effect of nor-BNI (KOR antagonist) pretreatment on antinociception,"C57BL/6J mice [1]; nor-BNI 10 mg/kg, i.p., −24 h, 1968-16 30 nmol or 1968-22 0.3 nmol, i.c.v.",significantly antagonized
same,effect of β-FNA (MOR antagonist) pretreatment on antinociception,"C57BL/6J mice [1]; β-FNA 10 mg/kg, i.p., −24 h, 1968-16 30 nmol or 1968-22 0.3 nmol, i.c.v.",significantly antagonized
same,effect on respiration rate vs vehicle,C57BL/6J mice [2]; 100 nmol,increases in respiration rates
same,effect on respiration rate vs vehicle,"C57BL/6J mice [2]; 0.3, 1 or 10 nmol",did not have any significant effect
same,pKi,[3]; [10],6.71
same,pKi,[3]; [11],6.62
same,pKi,[3]; [12],6.66
same,antagonism of SNC-80-induced antinociception,"C57BL/6J mice [4]; 2.5 h pretreatment, 0.3 nmol i.c.v., SNC-80 100 nmol, i.c.v.",significantly antagonized
same,antagonism of morphine-induced antinociception,"C57BL/6J mice [4]; 2.5 h pretreatment, 0.3 nmol i.c.v., morphine 10 mg/kg, i.p.",did not have an effect
same,pretreatment dose giving maximal antagonism of SNC-80,"C57BL/6J mice [4]; i.c.v. pretreatment, SNC-80 100 nmol, i.c.v.",3 nmol
same,pKi,mu-opioid receptor (MOR); [10],8.11
same,pKi,mu-opioid receptor (MOR); [11],8.14
same,pKi,"mu-opioid receptor (MOR); mean of Exp 1 and Exp 2, unit inferred, read-out: MEAN (Ki)",8.13
same,pKi,mu-opioid receptor (MOR); [12],8.15
same,place conditioning result,C57BL/6J mice [5],no significant preference or aversion
same,time detectable / stable in blood after i.v. administration,[6]; 10 mg/kg,at least 30 min
same,levels in perfused brain by LC-MS/MS,"[6]; 10 mg/kg, 5, 15 and 30 min",negligible levels
same,detection in serum by LC-MS/MS,"[6]; 10 mg/kg, within 5 min of administration",readily detected
same,pKi,"[7]; first Ki column, unit not printed (apparently M), read-out: Ki (first column)",6.59
same,pKi,"[7]; mean of both Ki, unit inferred, read-out: MEAN (Ki)",6.58
same,pKi,[7]; [12],6.58
same,pKi,"[7]; second Ki column, unit not printed (apparently M), read-out: Ki (second column)",6.57
same,effect on ambulation vs vehicle,"C57BL/6J mice [8]; 0.3 nmol, 0–20 min",brief reductions in ambulations
same,effect on ambulation vs vehicle,C57BL/6J mice [8]; 100 nmol,elevated ambulations
same,effect on ambulation vs vehicle,C57BL/6J mice [8]; 1 or 10 nmol,without significant effect
same,acute antinociceptive tolerance (in words),C57BL/6J mice [9],significant tolerance
same,ED50 (95% C.I.) of second dose at 8 h,C57BL/6J mice [9]; after ED50 pretreatment at 0 h,0.18 (0.09–0.32) nmol
